This note sets out measurements from ChEMBL document CHEMBL2040789, “Optimization of the Central Core of Indolinone-Acetic Acid-Based CRTH2 (DP2) Receptor Antagonists” (ACS Med Chem Lett, 2011).

What is called inhibition in vivo is the percentage by which the read-out fell short of the control. By Ki is commonly meant the equilibrium dissociation constant of an inhibitor or competing ligand from its target. Read a low Ki as tighter binding. Broadly, the fraction unbound is the share of the substance not bound to proteins or other matrix. A lower fraction unbound goes with little free substance. The term Papp denotes a coefficient for how fast a substance crosses the barrier. Broadly, the bioavailability is the share of a dose that reaches the circulation, judged against a reference dose that is usually intravenous. Usually inhibition stands for the change of the read-out against control, counted positive when it falls. The term IC50 denotes the point on the concentration scale where inhibition reaches its midpoint. A higher IC50 goes with weaker potency in that assay. One may read the AUC as the area under the concentration-time curve, a measure of exposure.

Where only a bound is given, the exact number is not on record here.

The test system of data set [1] is Mus musculus. Kind of data set: Antiinflammatory activity in ovalbumin-sensitised Balb/c mouse assessed as reduction in ovalbumin-induced eosinophil count in bronchoalveolar lavage fluid at 1 mg/kg, ip administered 1 hr before and 7 hrs after ovalbumin challenge measured after 8 hrs by haemocytometeric analysis. The data set is classed as functional. The settings on record: Lung, route intraperitoneal.

Data set [2] deals with T1, Prostaglandin D2 receptor 2 (Homo sapiens, UniProt Q9Y5Y4).
T1 sequence (Q9Y5Y4 whole entry): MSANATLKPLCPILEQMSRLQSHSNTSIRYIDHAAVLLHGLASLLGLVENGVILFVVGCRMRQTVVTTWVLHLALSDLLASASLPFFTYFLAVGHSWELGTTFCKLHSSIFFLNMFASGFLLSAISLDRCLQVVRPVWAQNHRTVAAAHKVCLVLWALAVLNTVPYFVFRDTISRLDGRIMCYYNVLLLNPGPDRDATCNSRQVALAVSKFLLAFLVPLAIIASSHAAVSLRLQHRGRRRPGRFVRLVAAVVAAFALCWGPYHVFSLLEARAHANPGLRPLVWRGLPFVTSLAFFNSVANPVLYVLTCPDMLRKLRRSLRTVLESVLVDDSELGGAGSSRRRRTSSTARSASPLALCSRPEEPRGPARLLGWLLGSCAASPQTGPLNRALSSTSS
Kind of data set: Displacement of [3H]PGD2 from human CRTH2 receptor expressed in CHO cells after 90 mins by scintillation proximity assay. Type of data set: cell-based. (In general: In a radioligand displacement assay an active substance lowers the binding of a labelled ligand.)

Data set [3] is described as follows: Fraction unbound in human plasma. Type of data set: ADME, cell-free.
Data set [4] is described as follows: Fraction unbound in rat plasma. The data set is classed as ADME, cell-free.
Data set [5] in a line: Fraction unbound in mouse plasma. The data set is classed as ADME, cell-free.
A short description of data set [6]: Apparent permeability of the compound in human Caco2 cells. Type of data set: ADME, cell-based. The following applies: Caco-2. On the technique in general: Passage across Caco-2 layers is used to estimate intestinal permeability.
Data set [7] in a line: Oral bioavailability in Sprague-Dawley rat at 5 mg/kg. The data set is classed as ADME, organism-based. The following applies: in vivo.
Data set [8] can be described thus: Oral bioavailability in C57BL/6 mouse at 5 mg/kg. Type of data set: ADME, organism-based. The following applies: in vivo.
A short description of data set [9]: Intrinsic clearance in rat liver microsomes. Type of data set: ADME, Microsome. The settings on record: read-out: CLH. (Microsomes from liver hold many membrane-bound enzymes, among them those of drug oxidation.)
For data set [10], the system named is Mus musculus. The data set can be described thus: Antiinflammatory activity in ovalbumin-sensitised Balb/c mouse assessed as reduction in ovalbumin-induced eosinophil count in bronchoalveolar lavage fluid at 30 mg/kg, po administered 1 hr before and 7 hrs after ovalbumin challenge measured after 8 hrs by haemocytometeric analysis. The following applies: Lung. Type of data set: functional.

For data set [11], the target named is T2, Prostaglandin E2 receptor EP1 subtype (Homo sapiens) (UniProt P34995).
T2 sequence (whole entry): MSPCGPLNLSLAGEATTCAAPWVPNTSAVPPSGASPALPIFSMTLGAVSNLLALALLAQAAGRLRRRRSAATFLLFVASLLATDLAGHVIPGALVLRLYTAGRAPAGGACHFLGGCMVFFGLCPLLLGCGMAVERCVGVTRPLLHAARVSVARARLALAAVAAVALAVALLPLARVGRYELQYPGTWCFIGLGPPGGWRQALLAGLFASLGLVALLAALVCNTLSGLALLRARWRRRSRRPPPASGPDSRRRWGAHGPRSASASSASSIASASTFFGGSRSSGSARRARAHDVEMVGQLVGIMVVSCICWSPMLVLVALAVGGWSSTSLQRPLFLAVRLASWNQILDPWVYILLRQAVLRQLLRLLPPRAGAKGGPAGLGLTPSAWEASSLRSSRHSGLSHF
Kind of data set: Inhibition of EP1 at 10 uM.

Data set [12] deals with Prostaglandin E2 receptor EP2 subtype (Homo sapiens) (UniProt P43116). The data set can be described thus: Inhibition of EP2 at 10 uM.
Sequence of Prostaglandin E2 receptor EP2 subtype (Homo sapiens) (P43116 whole entry): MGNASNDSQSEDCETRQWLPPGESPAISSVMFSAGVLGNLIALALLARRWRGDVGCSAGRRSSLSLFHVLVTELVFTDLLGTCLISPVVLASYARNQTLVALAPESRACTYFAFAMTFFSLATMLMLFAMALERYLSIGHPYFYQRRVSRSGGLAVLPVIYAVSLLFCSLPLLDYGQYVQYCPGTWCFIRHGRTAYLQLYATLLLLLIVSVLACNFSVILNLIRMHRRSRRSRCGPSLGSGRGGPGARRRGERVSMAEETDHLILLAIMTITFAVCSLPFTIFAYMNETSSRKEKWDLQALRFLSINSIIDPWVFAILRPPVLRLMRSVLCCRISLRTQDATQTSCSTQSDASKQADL
The target in data set [13] is T3, Prostaglandin D2 receptor (Homo sapiens) (UniProt Q13258).
T3 sequence (whole entry): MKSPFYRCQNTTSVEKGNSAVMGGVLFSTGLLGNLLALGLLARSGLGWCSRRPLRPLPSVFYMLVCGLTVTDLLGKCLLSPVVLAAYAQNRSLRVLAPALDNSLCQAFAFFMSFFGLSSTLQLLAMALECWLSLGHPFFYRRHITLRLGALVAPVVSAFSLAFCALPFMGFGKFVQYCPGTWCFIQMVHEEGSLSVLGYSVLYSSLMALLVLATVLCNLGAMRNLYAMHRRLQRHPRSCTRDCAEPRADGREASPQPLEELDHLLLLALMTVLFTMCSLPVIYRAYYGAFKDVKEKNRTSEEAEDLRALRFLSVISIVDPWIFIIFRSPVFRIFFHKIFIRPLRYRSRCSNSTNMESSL
Kind of data set: Inhibition of DP1 expressed in human HEK cells at 20 uM. The data set is classed as cell-based. The settings on record: HEK293.

Data set [14] addresses T3, Prostaglandin D2 receptor (Homo sapiens). The data set can be described thus: Antagonist activity at DP1 receptor expressed in HEK cells assessed as inhibition of PGD2-induced cAMP production at 20 uM. Type of data set: functional, cell-based. The following applies: HEK293.
Data set [15] addresses Voltage-gated inwardly rectifying potassium channel KCNH2 (Homo sapiens, UniProt Q12809). The data set can be described thus: Inhibition of human Erg.
The next data set deals with Hepatocyte. The data set can be described thus: Cytotoxicity against primary rat hepatocytes up to 750 uM. Type of data set: cell-based.
The next data set concerns HepG2. Kind of data set: Cytotoxicity against human HepG2 cells up to 750 uM. Type of data set: cell-based.
A further data set addresses T4, Cytochrome P450 1A2 (Homo sapiens, UniProt P05177).
T4 sequence (P05177 whole entry): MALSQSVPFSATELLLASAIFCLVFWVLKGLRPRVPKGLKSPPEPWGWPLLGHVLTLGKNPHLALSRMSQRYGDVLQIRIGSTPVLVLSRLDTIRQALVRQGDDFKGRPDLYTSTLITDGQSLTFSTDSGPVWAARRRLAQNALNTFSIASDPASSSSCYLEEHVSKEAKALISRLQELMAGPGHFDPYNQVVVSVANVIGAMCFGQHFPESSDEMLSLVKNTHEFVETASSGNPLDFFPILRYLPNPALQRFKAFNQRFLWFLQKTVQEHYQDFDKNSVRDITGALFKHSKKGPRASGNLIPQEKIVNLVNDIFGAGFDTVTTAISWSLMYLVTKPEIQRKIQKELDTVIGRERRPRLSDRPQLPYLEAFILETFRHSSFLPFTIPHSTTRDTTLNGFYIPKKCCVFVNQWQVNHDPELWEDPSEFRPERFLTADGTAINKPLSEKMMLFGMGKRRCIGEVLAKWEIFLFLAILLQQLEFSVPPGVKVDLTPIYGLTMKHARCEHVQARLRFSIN
The data set can be described thus: Inhibition of CYP1A2. Type of data set: ADME.

Another data set concerns the target Cytochrome P450 2C19 (Homo sapiens, UniProt P33261). The data set can be described thus: Inhibition of CYP2C19. Type of data set: ADME.
The target of the next data set is T5, Cytochrome P450 2C8 (Homo sapiens, UniProt P10632).
T5 sequence (P10632 whole entry): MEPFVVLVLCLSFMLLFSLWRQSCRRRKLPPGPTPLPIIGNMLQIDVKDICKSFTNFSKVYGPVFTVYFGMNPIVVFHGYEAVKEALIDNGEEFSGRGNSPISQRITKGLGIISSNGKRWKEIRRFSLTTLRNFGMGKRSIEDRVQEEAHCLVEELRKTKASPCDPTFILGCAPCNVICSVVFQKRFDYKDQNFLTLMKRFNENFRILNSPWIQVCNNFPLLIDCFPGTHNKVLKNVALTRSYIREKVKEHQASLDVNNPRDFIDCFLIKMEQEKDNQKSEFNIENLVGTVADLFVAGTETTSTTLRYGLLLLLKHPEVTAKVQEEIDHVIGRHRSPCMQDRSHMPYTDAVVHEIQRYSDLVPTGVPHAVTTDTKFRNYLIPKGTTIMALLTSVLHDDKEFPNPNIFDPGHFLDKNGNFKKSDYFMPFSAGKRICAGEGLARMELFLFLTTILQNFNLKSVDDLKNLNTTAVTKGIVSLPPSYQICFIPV
The data set can be described thus: Inhibition of CYP2C8. The data set is classed as ADME.

In a further data set the target is Cytochrome P450 2C9 (Homo sapiens, UniProt P11712). Kind of data set: Inhibition of CYP2C9. The data set is classed as ADME.
Sequence of Cytochrome P450 2C9 (P11712 whole entry): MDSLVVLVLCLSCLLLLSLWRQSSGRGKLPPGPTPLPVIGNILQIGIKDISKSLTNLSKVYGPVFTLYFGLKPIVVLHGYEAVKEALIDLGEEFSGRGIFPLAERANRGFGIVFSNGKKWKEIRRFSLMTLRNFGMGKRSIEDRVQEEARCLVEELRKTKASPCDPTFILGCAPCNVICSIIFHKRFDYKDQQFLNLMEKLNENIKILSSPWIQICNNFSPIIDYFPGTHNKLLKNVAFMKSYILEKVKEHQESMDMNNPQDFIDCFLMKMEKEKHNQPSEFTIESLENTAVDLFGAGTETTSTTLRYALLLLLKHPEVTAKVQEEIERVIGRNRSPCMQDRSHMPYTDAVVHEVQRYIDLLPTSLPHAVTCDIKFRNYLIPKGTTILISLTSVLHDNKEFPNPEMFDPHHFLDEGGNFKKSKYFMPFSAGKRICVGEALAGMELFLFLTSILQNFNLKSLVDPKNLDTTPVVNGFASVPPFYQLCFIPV
The target of a further data set is Cytochrome P450 2D6 (Homo sapiens, UniProt P10635). Kind of data set: Inhibition of CYP2D6. The data set is classed as ADME.
Sequence of Cytochrome P450 2D6 (P10635 whole entry): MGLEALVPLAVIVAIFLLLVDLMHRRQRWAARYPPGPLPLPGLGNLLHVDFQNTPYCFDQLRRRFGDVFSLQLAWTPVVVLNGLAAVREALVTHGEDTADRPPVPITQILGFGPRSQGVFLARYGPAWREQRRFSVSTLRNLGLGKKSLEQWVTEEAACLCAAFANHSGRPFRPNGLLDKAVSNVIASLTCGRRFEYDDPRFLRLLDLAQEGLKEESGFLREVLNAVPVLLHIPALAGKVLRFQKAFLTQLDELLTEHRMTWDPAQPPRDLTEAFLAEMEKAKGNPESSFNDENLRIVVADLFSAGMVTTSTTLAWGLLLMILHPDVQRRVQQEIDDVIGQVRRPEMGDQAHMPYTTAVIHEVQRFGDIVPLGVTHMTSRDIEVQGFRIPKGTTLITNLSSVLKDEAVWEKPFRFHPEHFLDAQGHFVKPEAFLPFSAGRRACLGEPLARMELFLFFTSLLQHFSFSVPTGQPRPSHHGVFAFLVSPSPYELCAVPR
Another data set has as its target Cytochrome P450 3A4 (Homo sapiens, UniProt P08684). The data set can be described thus: Inhibition of CYP3A4. The data set is classed as ADME.
The nature of data set [16]: Intrinsic clearance in human liver microsomes. Type of data set: ADME, Microsome. The following applies: read-out: CLH.
In data set [17] the target is Aldo-keto reductase family 1 member B1 (Homo sapiens, UniProt P15121). The data set can be described thus: Inhibition of aldose reductase.
A short description of data set [18]: Clearance in C57BL/6 mouse at 1 mg/kg, iv and 5 mg/kg, po. The data set is classed as ADME, organism-based. The following applies: in vivo.
The nature of data set [19]: AUC in C57BL/6 mouse at 5 mg/kg, po. Type of data set: ADME, organism-based. Also on record: dose 5 mg/kg, route oral. The following applies: plasma.

Sequence of Cytochrome P450 3A4 (P08684 whole entry): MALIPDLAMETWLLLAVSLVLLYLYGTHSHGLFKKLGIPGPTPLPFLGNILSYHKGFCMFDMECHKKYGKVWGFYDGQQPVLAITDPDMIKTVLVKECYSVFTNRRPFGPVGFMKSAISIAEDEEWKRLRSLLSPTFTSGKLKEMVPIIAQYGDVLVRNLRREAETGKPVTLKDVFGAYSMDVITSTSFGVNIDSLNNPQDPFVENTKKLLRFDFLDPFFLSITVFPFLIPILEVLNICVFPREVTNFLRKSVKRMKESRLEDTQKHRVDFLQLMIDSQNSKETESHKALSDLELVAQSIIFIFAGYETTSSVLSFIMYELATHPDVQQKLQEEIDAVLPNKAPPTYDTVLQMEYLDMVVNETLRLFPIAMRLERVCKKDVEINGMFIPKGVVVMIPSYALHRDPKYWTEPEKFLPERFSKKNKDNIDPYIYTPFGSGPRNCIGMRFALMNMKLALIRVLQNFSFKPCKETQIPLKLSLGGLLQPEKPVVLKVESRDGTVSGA
Sequence of Cytochrome P450 2C19 (P33261 whole entry): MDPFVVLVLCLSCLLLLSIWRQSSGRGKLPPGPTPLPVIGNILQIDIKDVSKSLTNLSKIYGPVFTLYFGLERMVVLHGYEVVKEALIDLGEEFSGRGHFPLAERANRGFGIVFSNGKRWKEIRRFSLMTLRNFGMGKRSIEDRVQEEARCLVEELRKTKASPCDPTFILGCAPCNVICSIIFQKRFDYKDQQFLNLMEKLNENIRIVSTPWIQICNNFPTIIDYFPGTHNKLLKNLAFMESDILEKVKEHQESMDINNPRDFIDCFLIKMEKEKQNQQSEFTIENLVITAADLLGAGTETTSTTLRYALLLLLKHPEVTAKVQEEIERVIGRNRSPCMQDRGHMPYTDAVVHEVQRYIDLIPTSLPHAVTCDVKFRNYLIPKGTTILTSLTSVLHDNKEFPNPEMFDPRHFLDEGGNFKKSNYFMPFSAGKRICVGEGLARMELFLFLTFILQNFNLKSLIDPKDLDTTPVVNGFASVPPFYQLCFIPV
Sequence of Voltage-gated inwardly rectifying potassium channel KCNH2 (Q12809 whole entry): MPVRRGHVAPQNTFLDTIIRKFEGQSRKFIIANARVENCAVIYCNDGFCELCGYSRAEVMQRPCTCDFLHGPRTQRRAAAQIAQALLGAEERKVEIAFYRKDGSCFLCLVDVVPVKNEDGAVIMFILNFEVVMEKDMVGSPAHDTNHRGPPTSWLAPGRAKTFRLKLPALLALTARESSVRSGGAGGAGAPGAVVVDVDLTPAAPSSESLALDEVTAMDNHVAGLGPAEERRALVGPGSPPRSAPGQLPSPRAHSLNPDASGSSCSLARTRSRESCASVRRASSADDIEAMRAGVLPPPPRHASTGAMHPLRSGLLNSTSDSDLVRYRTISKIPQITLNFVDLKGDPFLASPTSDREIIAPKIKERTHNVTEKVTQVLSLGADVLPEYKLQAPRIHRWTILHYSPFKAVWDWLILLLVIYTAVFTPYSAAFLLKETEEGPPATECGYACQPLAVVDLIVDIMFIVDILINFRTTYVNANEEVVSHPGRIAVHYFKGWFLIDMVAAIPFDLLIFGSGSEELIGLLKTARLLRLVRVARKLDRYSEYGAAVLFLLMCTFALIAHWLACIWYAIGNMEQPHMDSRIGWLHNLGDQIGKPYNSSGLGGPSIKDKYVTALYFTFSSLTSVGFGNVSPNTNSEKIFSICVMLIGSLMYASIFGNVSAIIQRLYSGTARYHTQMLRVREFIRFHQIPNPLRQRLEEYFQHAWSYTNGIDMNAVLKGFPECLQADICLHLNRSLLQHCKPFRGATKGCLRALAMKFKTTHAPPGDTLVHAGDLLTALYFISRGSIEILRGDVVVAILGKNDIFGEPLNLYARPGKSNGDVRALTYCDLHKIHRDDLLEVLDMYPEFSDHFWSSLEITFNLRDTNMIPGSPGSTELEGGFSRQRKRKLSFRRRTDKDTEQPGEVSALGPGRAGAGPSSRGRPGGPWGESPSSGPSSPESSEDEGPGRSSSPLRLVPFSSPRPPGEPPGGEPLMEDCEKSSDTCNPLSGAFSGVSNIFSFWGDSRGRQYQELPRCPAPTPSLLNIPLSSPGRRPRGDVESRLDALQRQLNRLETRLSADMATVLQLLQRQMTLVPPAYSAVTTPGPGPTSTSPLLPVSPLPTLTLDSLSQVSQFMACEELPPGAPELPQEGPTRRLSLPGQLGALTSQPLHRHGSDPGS

`C[C@@H]1C[C@H]2[C@@H]3CCC4=CC(=O)C=C[C@]4(C)[C@@]3(F)[C@@H](O)C[C@]2(C)[C@@]1(O)C(=O)CO` [DEXAMETHASONE]: in the data set on Mus musculus [1], the inhibition in vivo at 1 mg/kg was found to be 83%.
Consider `CN1C(=O)N(Cc2cc(Cl)ccc2F)C(=O)[C@]12C(=O)N(CC(=O)O)c1ccc(Cl)cc12`, for which the affinity in data set [2], expressed as Ki, was 0.035 µM. For the same molecule, the values for the fraction unbound in data set [3], in data set [4] and in data set [5] were 0.02, 0.019 and 0.05, respectively. Moreover, the Papp in data set [6] was 0.6 ×10⁻⁶ cm/s. In addition, the figures for the bioavailability in [7] and in [8] were 37% and 39%, respectively. The microsomal CLint in data set [9] and in data set [16] was under 10 µL/min/mg in each case. The inhibition in vivo at 30 mg/kg with Mus musculus [10] worked out at 67%. Further, the inhibition was 32% in data set [11], 34% in data set [12], under 30% in data set [13] and under 30% in data set [14]. The “inhibition (INH)” value in data set [15] was “Not Active”. Moreover, the Activity result with Hepatocyte and in the data set with HepG2 was “Non-toxic” in each case. The IC50 against Cytochrome P450 1A2, against Cytochrome P450 2C19, against Cytochrome P450 2C8, on Cytochrome P450 2C9, at Cytochrome P450 2D6 and at Cytochrome P450 3A4 was over 10 µM in each case. The same molecule returned an IC50 in data set [17] of 0.15 µM. In addition, the clearance in data set [18] was 13.3 mL/min/kg. In data set [19], this molecule came in with an AUC of 2400 ng·h/mL.
